According to PMC6172251, “Two Engineered OBPs with opposite temperature-dependent affinities towards 1-aminoanthracene” (Scientific Reports, 2018):

Columns and labels:
[1] = biological target: T1, OBP::GQ20::SP-DS3, engineered from OBP-I (Sus scrofa, UniProt P81245); experiment: direct fluorescence titration with 1-AMA (ex […] nm, em […] nm), […] °C; Kd […] at […] °C; format: binding
T1 construct: fusion of OBP-I with a linker of 20 glycine-glutamine repeats (GQ20) and the anchor peptide SP-DS3 ([…]); His-tag at N-terminal
T1 sequence (P81245 1-157): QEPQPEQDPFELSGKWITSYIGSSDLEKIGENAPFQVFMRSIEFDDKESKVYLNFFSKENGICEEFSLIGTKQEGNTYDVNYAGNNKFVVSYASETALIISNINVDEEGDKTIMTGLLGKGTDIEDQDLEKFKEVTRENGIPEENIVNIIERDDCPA

[2] = biological target: T2, truncated OBP (tOBP), engineered from OBP-I (Sus scrofa, UniProt P81245, F44A/F66A); experiment: as above; format: binding
T2 construct: OBP-I with deletion of the first 16 residues of the N-terminal and F44A and F66A; His-tag at N-terminal
T2 sequence (P81245 17-157 F44A/F66A): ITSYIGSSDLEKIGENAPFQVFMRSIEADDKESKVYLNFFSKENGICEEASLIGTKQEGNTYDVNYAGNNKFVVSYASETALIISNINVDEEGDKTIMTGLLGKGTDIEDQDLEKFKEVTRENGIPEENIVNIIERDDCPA

In the case of `Nc1cccc2cc3ccccc3cc12` [1-AMA, 1-aminoanthracene], the Kd [1] is reported as 0.58 µM and the Kd [2] is reported as 0.45 µM.
